From EPA's ToxRefDB 2

Legend:
rat [1] = settings: Sub-acute repeat dose toxicity, sprague dawley, Oral, Gavage/Intubation, dose end: 14 day, group: systemic
primate [2] = settings: Sub-acute repeat dose toxicity, Oral, Gavage/Intubation, dose end: 23 day, group: systemic
rat [3] = settings: Sub-acute repeat dose toxicity, sprague dawley, Oral, Gavage/Intubation, dose end: 29 day, group: systemic
primate [4] = settings: Sub-acute repeat dose toxicity; Oral; Gavage/Intubation; dose end: 34 day; group: systemic; systemic / pathology microscopic / intestine small / erosion + systemic / pathology microscopic / intestine small / hemorrhage + systemic / …
rat [5] = settings: Carcinogenicity, fischer, Oral, Feed, dose end: 2 year, group: systemic
rat [6] = settings: Subchronic oral toxicity in rodents, fischer, Gavage/Intubation, dose end: 14 week, group: systemic
rat [7] = settings: Carcinogenicity, fischer, Oral, Gavage/Intubation, dose end: 105 week, group: systemic
rat [8] = settings: Multigenerational reproductive toxicity study, sprague dawley, Oral, Gavage/Intubation, dose end: 2 generation
rat [9] = settings: Prenatal developmental toxicity study, sprague dawley, Oral, Gavage/Intubation, dose end: 19 GD
mouse [10] = settings: Carcinogenicity; b6c3f1; Oral; Gavage/Intubation; dose end: 105 week; group: systemic; systemic / pathology microscopic / nose / dilatation + systemic / pathology microscopic / nose / hyperplasia + systemic / pathology …
mouse [11] = settings: Subchronic oral toxicity in rodents, b6c3f1, Gavage/Intubation, dose end: 14 week, group: systemic
rat [12] = settings: Sub-acute repeat dose toxicity, sprague dawley, Oral, Gavage/Intubation, dose end: 4 week, group: systemic
rat [13] = settings: Sub-acute repeat dose toxicity; long evans; Oral; Gavage/Intubation; dose end: 4 week; group: systemic; systemic / in life observation / body weight / body weight gain + systemic / in life observation / clinical signs / drooping eyelids (ptosis…
rabbit [14] = settings: Prenatal developmental toxicity study, himalayan, Injection, Intravenous, dose end: 18 GD, group: maternal
rat [15] = settings: Fertility (Segment I), wistar, Oral, Gavage/Intubation, dose end: 7 GD
rabbit [16] = settings: Prenatal developmental toxicity study, himalayan, Oral, Gavage/Intubation, dose end: 18 GD
rabbit [17] = settings: Prenatal developmental toxicity study, himalayan, Oral, Gavage/Intubation, dose end: 18 GD; remark: listed apart in the source
mouse [18] = settings: Combined chronic toxicity/carcinogenicity; other; Oral; Feed; dose end: 365 day; group: systemic; systemic / pathology gross / full gross necropsy / lymphoma malignant
rat [19] = settings: Combined chronic toxicity/carcinogenicity; fischer; Oral; Feed; dose end: 365 day; group: systemic; systemic / in life observation / body weight / body weight
[20] = systemic / hematology / platelet / platelet + systemic / in life observation / body weight / body weight gain + systemic / in life …
[21] = systemic / in life observation / body weight / body weight gain
[22] = systemic / clinical chemistry / alanine aminotransferase (alt/sgpt) / alanine aminotransferase (alt/sgpt) + systemic / clinical chemistry / …
[23] = systemic / in life observation / clinical signs / emesis
[24] = systemic / clinical chemistry / [other] / [other] + systemic / clinical chemistry / protein / protein + systemic / hematology / erythrocyte…
[25] = systemic / in life observation / body weight / body weight + systemic / pathology microscopic / urinary bladder / hyperplasia
[26] = systemic / in life observation / body weight / body weight + systemic / pathology microscopic / urinary bladder / hyperplasia + systemic / …
[27] = systemic / clinical chemistry / cytochrome p450, nos / cytochrome p450, nos
[28] = systemic / organ weight / liver / absolute + systemic / organ weight / liver / relative to body weight + systemic / pathology microscopic / …
[29] = systemic / pathology microscopic / nose / atrophy + systemic / pathology microscopic / nose / metaplasia
[30] = group: offspring, developmental / developmental landmark / nipple development / nipple development + systemic / in life observation / body weight / offspring…
[31] = group: offspring, systemic / pathology microscopic / stomach / hyperkeratosis + systemic / pathology microscopic / stomach / hyperplasia
[32] = group: parental, systemic / in life observation / body weight / body weight + systemic / in life observation / body weight / dam weight + systemic / in life …
[33] = group: parental, systemic / organ weight / liver / relative to body weight + systemic / pathology microscopic / stomach / hyperkeratosis + systemic / …
[34] = group: reproductive, reproductive / offspring survival early / live fetuses / live fetuses
[35] = group: developmental, developmental / developmental malformation / bone / unossified + systemic / in life observation / body weight / fetal weight
[36] = group: maternal, systemic / in life observation / body weight / body weight + systemic / in life observation / body weight / body weight gain + systemic / in…
[37] = systemic / organ weight / liver / relative to body weight
[38] = systemic / clinical chemistry / adrenocorticotropic hormone (acth) / adrenocorticotropic hormone (acth)
[39] = systemic / clinical chemistry / adrenocorticotropic hormone (acth) / adrenocorticotropic hormone (acth) + systemic / clinical chemistry / …
[40] = systemic / in life observation / body weight / body weight gain + systemic / in life observation / food consumption / food consumption + …
[41] = group: maternal, reproductive / reproductive performance / implantations / implantations + reproductive / reproductive performance / preimplantation loss / …
[42] = group: parental, systemic / in life observation / clinical signs / salivation + systemic / in life observation / clinical signs / tremors + systemic / in …
[43] = group: developmental, developmental / developmental malformation / bone / incomplete ossification + developmental / developmental malformation / bone / short + …
[44] = group: maternal, systemic / in life observation / clinical signs / motor activity + systemic / in life observation / mortality / mortality
[45] = group: developmental, developmental / developmental malformation / paw / digit / [other]
[46] = group: maternal, systemic / in life observation / body weight / body weight gain + systemic / in life observation / clinical signs / [other] + systemic / in …
[47] = group: maternal, systemic / in life observation / clinical signs / ataxia + systemic / in life observation / clinical signs / motor activity + systemic / in …

## NC(=O)n1c(O)c(C(=O)c2ccc(Cl)s2)c2cc(Cl)ccc21
Rat [1]; [20]
  LOAEL: > 100 mg/kg/day
  NOAEL: ≥ 100 mg/kg/day
Rat [1]; [21]
  LEL: 10 mg/kg/day
  NEL: < 10 mg/kg/day
Primate [2]; [22]
  LOAEL: > 30 mg/kg/day
  NOAEL: ≥ 30 mg/kg/day
Primate [2]; [23]
  LEL: 1 mg/kg/day
  NEL: < 1 mg/kg/day
Rat [3]; [24]
  LOAEL: > 30 mg/kg/day
  NEL: 3 mg/kg/day
  NOAEL: ≥ 30 mg/kg/day
Rat [3]; systemic / clinical chemistry / protein / protein + systemic / hematology / erythrocyte (rbc) count differential / erythrocyte (rbc) + …
  LEL: 10 mg/kg/day
Primate [4]
  LEL: 3 mg/kg/day
  LOAEL: > 10 mg/kg/day
  NEL: 1 mg/kg/day
  NOAEL: ≥ 10 mg/kg/day

## Cc1ccccc1N.Cl [2-Methylaniline hydrochloride]
Rat [5]; [25]
  LOAEL: 300 mg/kg/day
  NOAEL: < 300 mg/kg/day
Rat [5]; [26]
  LEL: 300 mg/kg/day
  NEL: < 300 mg/kg/day

## C/C=C/c1ccc(O)c(OC)c1 [Isoeugenol]
Rat [6]; [27]
  LEL: 75 mg/kg/day
  NEL: 37.5 mg/kg/day
Rat [6]; [28]
  LOAEL: 600 mg/kg/day
  NOAEL: 300 mg/kg/day
Rat [7]; [29]
  LEL: 75 mg/kg/day
  LOAEL: 150 mg/kg/day
  NEL: < 75 mg/kg/day
Rat [7]; systemic / pathology microscopic / nose / atrophy + systemic / pathology microscopic / nose / metaplasia + systemic / pathology microscopic…
  NOAEL: 75 mg/kg/day
Rat [8]; [30]
  LOAEL: > 700 mg/kg/day
  NOAEL: ≥ 700 mg/kg/day
Rat [8]; [31]
  LEL: 70 mg/kg/day
  NEL: < 70 mg/kg/day
Rat [8]; [32]
  LOAEL: > 700 mg/kg/day
  NOAEL: ≥ 700 mg/kg/day
Rat [8]; [33]
  LEL: 70 mg/kg/day
  NEL: < 70 mg/kg/day
Rat [8]; [34]
  LEL: 700 mg/kg/day
  LOAEL: > 700 mg/kg/day
  NEL: 230 mg/kg/day
  NOAEL: ≥ 700 mg/kg/day
Rat [9]; [35]
  LEL: 1000 mg/kg/day
  LOAEL: 1000 mg/kg/day
  NEL: 500 mg/kg/day
  NOAEL: 500 mg/kg/day
Rat [9]; [36]
  LEL: 250 mg/kg/day
  LOAEL: 250 mg/kg/day
  NEL: < 250 mg/kg/day
  NOAEL: < 250 mg/kg/day
Mouse [10]
  LEL: 75 mg/kg/day
  LOAEL: 75 mg/kg/day
  NEL: < 75 mg/kg/day
  NOAEL: < 75 mg/kg/day
Mouse [11]; [37]
  LEL: 37.5 mg/kg/day
  NEL: < 37.5 mg/kg/day
Mouse [11]; systemic / pathology microscopic / nose / atrophy + systemic / in life observation / body weight / body weight + systemic / in life …
  LOAEL: 600 mg/kg/day
Mouse [11]; systemic / pathology microscopic / nose / atrophy + systemic / organ weight / lung / absolute
  NOAEL: 300 mg/kg/day

## COc1cccc([C@H](O)C2CCN(CCc3ccc(F)cc3)CC2)c1OC [Volinanserin]
Rat [12]; [38]
  LEL: 12.5 mg/kg/day
  NEL: < 12.5 mg/kg/day
Rat [12]; [39]
  LOAEL: > 75 mg/kg/day
  NOAEL: ≥ 75 mg/kg/day
Rat [13]
  LEL: 150 mg/kg/day
  LOAEL: > 150 mg/kg/day
  NEL: 50 mg/kg/day
  NOAEL: ≥ 150 mg/kg/day
Rabbit [14]; systemic / in life observation / body weight / body weight gain + systemic / in life observation / food consumption / food consumption
  LEL: 3 mg/kg/day
Rabbit [14]; [40]
  LOAEL: > 4.5 mg/kg/day
  NEL: 0.2 mg/kg/day
  NOAEL: ≥ 4.5 mg/kg/day
Rat [15]; [41]
  LEL: 200 mg/kg/day
  LOAEL: > 200 mg/kg/day
  NOAEL: ≥ 200 mg/kg/day
Rat [15]; [42]
  NEL: 20 mg/kg/day
  NOAEL: 20 mg/kg/day
Rabbit [16]; [43]
  LEL: 40 mg/kg/day
  LOAEL: > 40 mg/kg/day
  NEL: 12.5 mg/kg/day
  NOAEL: ≥ 40 mg/kg/day
Rabbit [16]; [44]
  LEL: 40 mg/kg/day
  LOAEL: > 40 mg/kg/day
  NEL: 12.5 mg/kg/day
  NOAEL: ≥ 40 mg/kg/day
Rabbit [17]; [45]
  LEL: 50 mg/kg/day
  LOAEL: > 100 mg/kg/day
  NEL: < 50 mg/kg/day
  NOAEL: ≥ 100 mg/kg/day
Rabbit [17]; [46]
  LOAEL: > 100 mg/kg/day
  NOAEL: ≥ 100 mg/kg/day
Rabbit [17]; [47]
  LEL: 50 mg/kg/day
  NEL: < 50 mg/kg/day

## Cc1ccc(NC(N)=O)cc1 [p-Tolylurea]
Mouse [18]
  LEL: 300 mg/kg/day
  LOAEL: > 300 mg/kg/day
  NEL: < 300 mg/kg/day
  NOAEL: ≥ 300 mg/kg/day
Rat [19]
  LEL: 100 mg/kg/day
  LOAEL: > 100 mg/kg/day
  NEL: < 100 mg/kg/day
  NOAEL: ≥ 100 mg/kg/day
